# Columns and labels:
# [1] = relative to vasopressin; cited from earlier work
# [2] = test system: adult patients with nocturia; assay: Duration of initial period of undisturbed sleep, change from baseline to Day 28 (Part I); type: in vivo, human; conditions: for Change from baseline to final visit (Day 28) in duration of initial period of undisturbed sleep, mean / Change from baseline to final visit (Day 28) in duration of initial period of undisturbed sleep, median: ITT, Part I; for median increase in initial period of sleep: baseline to Day 28
# Experimental: As used herein, the term “first sleep period” refers to the time elapsed from bedtime to either first void or morning arising.
# (§1) All treatments were administered orally once per night approximately 1 hour prior to bedtime; subjects were instructed to limit their fluid intake prior to drug self-administration. […] Randomization was to be stratified by age (<65, ≥65 years) and by the absence/presence of nocturnal polyuria, defined as a ratio of nighttime urine volume/24-hour urine volume 33%. To achieve the desired number of subjects within each stratum, enrollment of subjects in a particular stratum (age and/or presence/absence of nocturnal polyuria) could be halted. If this was necessary, all investigative sites were to be informed in writing at least 1 week in advance to stop screening in a population of subjects.
# The secondary efficacy endpoints were: (1) durability of effect achieved in Part I; (2) change in initial period of undisturbed sleep, defined as the elapsed time in minutes from going to bed with the intention of sleeping to the time of awakening for the first nocturnal void; and (3) change in duration of total sleep time. Additional secondary endpoints were collected, e.g., change in nocturia-specific quality of life as assessed by scores on the International Consultation on Incontinence Modular Questionnaire—Noctuira and the Noctuira Quality of Life Questionnaire, change in quality of sleep as assessed by the global score of the Pittsburgh Sleep Quality Index, and change in overall quality of life as assessed by the short form—12v2. A description of the additional secondary efficacy endpoints and their accompanying data are not provided herein.
# (§2) Missing values concerning number of nocturnal voids at Day 8, Day 15, Day 22, and Day 28 in Part I were imputed using last observation carried forward (LOCF). Missing values concerning sleep disturbance and urine volume (for average 24-hour urine volume and average nocturnal urine volume) were not imputed.
# [3] = test system: adult patients with nocturia; assay: Change in urine volume (nocturnal, total) from baseline to Day 28 (Part I); type: in vivo, human; conditions: all females
# Experimental: As used herein, the term “nocturnal urine” refers to the total urine volume from 5 minutes after bedtime until rising in the morning, including the first void within 30 minutes of rising.
# as §1
# Changes in urine volume from baseline to the end of Day 28 were also assessed and included herein.
# as §2
# [4] = 10 ug, all males with monitoring
# [5] = 10 ug, females over 50 years of age
# [6] = 10 ug, females over 65 years of age
# [7] = 25 ug, all males with monitoring
# [8] = 25 ug, females over 50 years of age
# [9] = 25 ug, females over 65 years of age
# [10] = 50 ug, all males with monitoring
# [11] = 50 ug, females over 50 years of age
# [12] = 50 ug, females over 65 years of age
# [13] = 100 ug, all males with monitoring
# [14] = 100 ug, females over 50 years of age
# [15] = 100 ug, females over 65 years of age
smiles,measurement,setting,value
NC(=O)CC[C@@H]1NC(=O)[C@H](Cc2ccccc2)NC(=O)[C@H](Cc2ccc(O)cc2)NC(=O)CCSSC[C@@H](C(=O)N2CCC[C@H]2C(=O)N[C@H](CCCN=C(N)N)C(=O)NCC(N)=O)NC(=O)[C@H](CC(N)=O)NC1=O [desmopressin],"antidiuretic-to-vasopressor ratio, greater than vasopressin",[1],3000 fold
same,"Change from baseline to final visit (Day 28) in duration of initial period of undisturbed sleep, mean","[2]; 10 ug, all females",54 min
same,"Change from baseline to final visit (Day 28) in duration of initial period of undisturbed sleep, median","[2]; 10 ug, all females",46 min
same,"Change from baseline to final visit (Day 28) in duration of initial period of undisturbed sleep, mean","[2]; 10 ug, all groups",51 min
same,"Change from baseline to final visit (Day 28) in duration of initial period of undisturbed sleep, median","[2]; 10 ug, all groups",51 min
same,"Change from baseline to final visit (Day 28) in duration of initial period of undisturbed sleep, mean",[2]; [4],54 min
same,"Change from baseline to final visit (Day 28) in duration of initial period of undisturbed sleep, median",[2]; [4],59 min
same,"Change from baseline to final visit (Day 28) in duration of initial period of undisturbed sleep, mean","[2]; 10 ug, all males",48 min
same,"Change from baseline to final visit (Day 28) in duration of initial period of undisturbed sleep, median","[2]; 10 ug, all males",56 min
same,"Change from baseline to final visit (Day 28) in duration of initial period of undisturbed sleep, mean",[2]; [5],33 min
same,"Change from baseline to final visit (Day 28) in duration of initial period of undisturbed sleep, median",[2]; [5],27 min
same,"Change from baseline to final visit (Day 28) in duration of initial period of undisturbed sleep, mean",[2]; [6],18 min
same,"Change from baseline to final visit (Day 28) in duration of initial period of undisturbed sleep, median",[2]; [6],46 min
same,"Change from baseline to final visit (Day 28) in duration of initial period of undisturbed sleep, mean","[2]; 25 ug, all females",113 min
same,"Change from baseline to final visit (Day 28) in duration of initial period of undisturbed sleep, median","[2]; 25 ug, all females",95 min
same,"Change from baseline to final visit (Day 28) in duration of initial period of undisturbed sleep, mean","[2]; 25 ug, all groups",83 min
same,"Change from baseline to final visit (Day 28) in duration of initial period of undisturbed sleep, median","[2]; 25 ug, all groups",62 min
same,"Change from baseline to final visit (Day 28) in duration of initial period of undisturbed sleep, mean",[2]; [7],57 min
same,"Change from baseline to final visit (Day 28) in duration of initial period of undisturbed sleep, median",[2]; [7],54 min
same,"Change from baseline to final visit (Day 28) in duration of initial period of undisturbed sleep, mean","[2]; 25 ug, all males",61 min
same,"Change from baseline to final visit (Day 28) in duration of initial period of undisturbed sleep, median","[2]; 25 ug, all males",55 min
same,median increase in initial period of sleep,[2]; 25 μg,approximately 1 hour
same,"Change from baseline to final visit (Day 28) in duration of initial period of undisturbed sleep, mean",[2]; [8],122 min
same,"Change from baseline to final visit (Day 28) in duration of initial period of undisturbed sleep, median",[2]; [8],96 min
same,"Change from baseline to final visit (Day 28) in duration of initial period of undisturbed sleep, mean",[2]; [9],131 min
same,"Change from baseline to final visit (Day 28) in duration of initial period of undisturbed sleep, median",[2]; [9],113 min
same,"Change from baseline to final visit (Day 28) in duration of initial period of undisturbed sleep, mean","[2]; 50 ug, all females",98 min
same,"Change from baseline to final visit (Day 28) in duration of initial period of undisturbed sleep, median","[2]; 50 ug, all females",70 min
same,"Change from baseline to final visit (Day 28) in duration of initial period of undisturbed sleep, mean","[2]; 50 ug, all groups",85 min
same,"Change from baseline to final visit (Day 28) in duration of initial period of undisturbed sleep, median","[2]; 50 ug, all groups",63 min
same,"Change from baseline to final visit (Day 28) in duration of initial period of undisturbed sleep, mean",[2]; [10],64 min
same,"Change from baseline to final visit (Day 28) in duration of initial period of undisturbed sleep, median",[2]; [10],59 min
same,"Change from baseline to final visit (Day 28) in duration of initial period of undisturbed sleep, mean","[2]; 50 ug, all males",72 min
same,"Change from baseline to final visit (Day 28) in duration of initial period of undisturbed sleep, median","[2]; 50 ug, all males",55 min
same,median increase in initial period of sleep,[2]; 50 μg,approximately 1 hour
same,"Change from baseline to final visit (Day 28) in duration of initial period of undisturbed sleep, mean",[2]; [11],83 min
same,"Change from baseline to final visit (Day 28) in duration of initial period of undisturbed sleep, median",[2]; [11],63 min
same,"Change from baseline to final visit (Day 28) in duration of initial period of undisturbed sleep, mean",[2]; [12],42 min
same,"Change from baseline to final visit (Day 28) in duration of initial period of undisturbed sleep, median",[2]; [12],30 min
same,"Change from baseline to final visit (Day 28) in duration of initial period of undisturbed sleep, mean","[2]; 100 ug, all females",114 min
same,"Change from baseline to final visit (Day 28) in duration of initial period of undisturbed sleep, median","[2]; 100 ug, all females",93 min
same,"Change from baseline to final visit (Day 28) in duration of initial period of undisturbed sleep, mean","[2]; 100 ug, all groups",107 min
same,"Change from baseline to final visit (Day 28) in duration of initial period of undisturbed sleep, median","[2]; 100 ug, all groups",96 min
same,"Change from baseline to final visit (Day 28) in duration of initial period of undisturbed sleep, mean",[2]; [13],108 min
same,"Change from baseline to final visit (Day 28) in duration of initial period of undisturbed sleep, median",[2]; [13],116 min
same,"Change from baseline to final visit (Day 28) in duration of initial period of undisturbed sleep, mean","[2]; 100 ug, all males",100 min
same,"Change from baseline to final visit (Day 28) in duration of initial period of undisturbed sleep, median","[2]; 100 ug, all males",101 min
same,"Change from baseline to final visit (Day 28) in duration of initial period of undisturbed sleep, mean",[2]; [14],108 min
same,"Change from baseline to final visit (Day 28) in duration of initial period of undisturbed sleep, median",[2]; [14],89 min
same,"Change from baseline to final visit (Day 28) in duration of initial period of undisturbed sleep, mean",[2]; [15],81 min
same,"Change from baseline to final visit (Day 28) in duration of initial period of undisturbed sleep, median",[2]; [15],70 min
same,median decrease of nocturnal urine volume compared to baseline before treatment,"[3]; 10 μg, Day 28",179 mL
same,"Change from baseline to final visit (Day 28) of nocturnal urine volume, mean","[3]; 10 ug, ITT, Part I",-207 mL

# — US11963995B2, “Methods comprising desmopressin” (Ferring B.V., priority 2008, dated 2024)
